According to BindingDB's records for patent US20240316047 (Accent Therapeutics, 2024):

Biological target: ATP-dependent RNA helicase A (UniProt Q08211)
Experiment: Biochemical Assay

Chain of ATP-dependent RNA helicase A (Q08211 whole entry): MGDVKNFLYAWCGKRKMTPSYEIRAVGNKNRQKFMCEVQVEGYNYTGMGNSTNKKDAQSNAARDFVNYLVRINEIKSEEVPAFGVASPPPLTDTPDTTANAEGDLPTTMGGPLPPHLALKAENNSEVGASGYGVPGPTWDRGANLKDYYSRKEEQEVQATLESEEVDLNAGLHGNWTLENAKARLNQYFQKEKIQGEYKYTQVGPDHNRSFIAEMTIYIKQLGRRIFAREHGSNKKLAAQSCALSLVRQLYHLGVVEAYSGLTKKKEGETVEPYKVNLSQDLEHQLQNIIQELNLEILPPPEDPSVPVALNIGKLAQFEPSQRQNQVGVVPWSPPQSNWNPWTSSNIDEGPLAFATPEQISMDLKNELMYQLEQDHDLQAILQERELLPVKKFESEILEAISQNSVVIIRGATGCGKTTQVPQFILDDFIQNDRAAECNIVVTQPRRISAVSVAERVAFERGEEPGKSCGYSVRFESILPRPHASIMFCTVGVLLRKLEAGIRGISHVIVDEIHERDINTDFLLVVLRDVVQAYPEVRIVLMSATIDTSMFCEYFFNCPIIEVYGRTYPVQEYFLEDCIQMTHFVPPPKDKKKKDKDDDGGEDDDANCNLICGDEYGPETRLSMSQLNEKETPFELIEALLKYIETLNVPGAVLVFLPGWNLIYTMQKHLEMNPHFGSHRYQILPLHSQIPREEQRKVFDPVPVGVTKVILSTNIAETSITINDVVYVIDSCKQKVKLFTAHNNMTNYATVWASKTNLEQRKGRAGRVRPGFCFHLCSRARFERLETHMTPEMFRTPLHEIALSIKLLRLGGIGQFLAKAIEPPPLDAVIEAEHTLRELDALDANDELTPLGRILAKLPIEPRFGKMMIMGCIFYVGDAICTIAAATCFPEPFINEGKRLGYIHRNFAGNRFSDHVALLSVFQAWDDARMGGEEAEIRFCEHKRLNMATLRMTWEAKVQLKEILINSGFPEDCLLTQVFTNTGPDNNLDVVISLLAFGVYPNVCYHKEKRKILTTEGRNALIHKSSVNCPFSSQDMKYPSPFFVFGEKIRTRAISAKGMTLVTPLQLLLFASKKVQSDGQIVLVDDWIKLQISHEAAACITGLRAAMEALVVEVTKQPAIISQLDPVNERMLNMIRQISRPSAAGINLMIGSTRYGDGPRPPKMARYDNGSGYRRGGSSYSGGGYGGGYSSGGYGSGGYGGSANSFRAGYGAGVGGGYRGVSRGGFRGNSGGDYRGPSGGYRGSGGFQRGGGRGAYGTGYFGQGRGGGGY

First: Cc1sc(C(=O)Nc2cc(Cl)cc(NS(C)(=O)=O)c2)cc1-c1ncc(N2CCC3(C2)CC3(F)F)cn1 (centres undefined) [US20240316047, Example 491]
Second: Cc1cccnc1-c1cc(C(=O)Nc2cc(Cl)cc(NS(C)(=O)=O)c2)cn1CC(F)F [US20240316047, Example 143]
The IC50 of the first is 4.7-fold lower: 10.8 nM for the first, 51.1 nM for the second. The first is the more potent here.

First: Cc1cc(C(=O)Nc2cc(Cl)cc(NS(C)(=O)=O)c2)cn1-c1ccccc1 [US20240316047, Example 129]
Second: CC(C)(C)OC(=O)N1CCC(n2cc(C(=O)Nc3cc(Cl)cc(NS(C)(=O)=O)c3)cn2)CC1 [US20240316047, Example 136]
The IC50 of the first is 6.1-fold lower: 38.4 nM for the first, 234 nM for the second. The first is the more potent here.
